Data: the supplement of paper PMC10883282
± gives the standard deviation of the averaged measurements.

Test system: SK-ES-1
Experiment: relative viability vs DMSO control (72 h) (fraction); higher = more viable cells
In short: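 Sarcoma cell lines in 384-well plates, seeded to reach 80–90% confluence, were given compound after 24 h and kept 72 h at 37 °C, 5% CO2, with 0.1% DMSO vehicle and a 5 µM positive control. Relative viability came from ATPLite as percent growth, averaged over up to triplicate wells. On the rescaled values, 1 equals full and 0 equals none.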

C=CC(=O)N1CCC[C@@H](n2nc(-c3ccc(Oc4ccccc4)cc3)c3c(N)ncnc32)C1 [Ibrutinib]
relative viability (0.00017 µM): 1.008 ± 0.0073
relative viability (0.00051 µM): 1.02 ± 0.054
relative viability (0.00152 µM): 1.02 ± 0.026
relative viability (0.00457 µM): 1.02 ± 0.054
relative viability (0.01372 µM): 1 ± 0.085
relative viability (0.04115 µM): 1.04 ± 0.03
relative viability (0.1235 µM): 1 ± 0.011
relative viability (0.3704 µM): 1.06 ± 0.036
relative viability (1.111 µM): 1.057 ± 0.0088
relative viability (3.333 µM): 1.02 ± 0.021
relative viability (10 µM): 0.743 ± 0.043

CC[C@H](Nc1ncnc2[nH]cnc12)c1nc2cccc(F)c2c(=O)n1-c1ccccc1 [Idelalisib]
relative viability (0.00017 µM): 1.06 ± 0.041
relative viability (0.00051 µM): 1.06 ± 0.06
relative viability (0.00152 µM): 1.03 ± 0.024
relative viability (0.00457 µM): 1.08 ± 0.018
relative viability (0.01372 µM): 1.08 ± 0.015
relative viability (0.04115 µM): 1.08 ± 0.051
relative viability (0.1235 µM): 1.04 ± 0.042
relative viability (0.3704 µM): 1.02 ± 0.021
relative viability (1.111 µM): 1.01 ± 0.056
relative viability (3.333 µM): 0.905 ± 0.052
relative viability (10 µM): 0.827 ± 0.01

O=C(Cc1ccc(-c2ccc(OCCN3CCOCC3)cc2)cn1)NCc1ccccc1 [KX2-391]
relative viability (0.00017 µM): 1.07 ± 0.02
relative viability (0.00051 µM): 1.11 ± 0.035
relative viability (0.00152 µM): 1.05 ± 0.059
relative viability (0.00457 µM): 1.07 ± 0.026
relative viability (0.01372 µM): 1.05 ± 0.032
relative viability (0.04115 µM): 0.235 ± 0.039
relative viability (0.1235 µM): 0.024 ± 0.0039
relative viability (0.3704 µM): 0.0226 ± 0.00042
relative viability (1.111 µM): 0.0192 ± 0.0041
relative viability (3.333 µM): 0.0176 ± 0.0029
relative viability (10 µM): 0.0223 ± 0.0021

O=C(Nc1cnn2ccc(N3CCC[C@@H]3c3cc(F)ccc3F)nc12)N1CC[C@H](O)C1 [Larotrectinib]
relative viability (0.00017 µM): 1.01 ± 0.018
relative viability (0.00051 µM): 1.04 ± 0.048
relative viability (0.00152 µM): 1.04 ± 0.026
relative viability (0.00457 µM): 1.04 ± 0.064
relative viability (0.01372 µM): 1.04 ± 0.038
relative viability (0.04115 µM): 1.03 ± 0.053
relative viability (0.1235 µM): 1 ± 0.02
relative viability (0.3704 µM): 1.02 ± 0.062
relative viability (1.111 µM): 1 ± 0.03
relative viability (3.333 µM): 0.969 ± 0.034
relative viability (10 µM): 1.03 ± 0.058

Cc1ccc(F)c(NC(=O)Nc2ccc(-c3cccc4[nH]nc(N)c34)cc2)c1 [Linifanib]
relative viability (0.00017 µM): 1.07 ± 0.098
relative viability (0.00051 µM): 1.07 ± 0.044
relative viability (0.00152 µM): 1.08 ± 0.043
relative viability (0.00457 µM): 1.11 ± 0.025
relative viability (0.01372 µM): 1.09 ± 0.052
relative viability (0.04115 µM): 1.04 ± 0.028
relative viability (0.1235 µM): 1.04 ± 0.038
relative viability (0.3704 µM): 1.05 ± 0.039
relative viability (1.111 µM): 1.01 ± 0.032
relative viability (3.333 µM): 0.879 ± 0.17
relative viability (10 µM): 1.03 ± 0.034

C[C@]1(O)C[C@@H](c2nc(-c3ccc4ccc(-c5ccccc5)nc4c3)c3c(N)nccn32)C1 [Linsitinib]
relative viability (0.00017 µM): 1.05 ± 0.039
relative viability (0.00051 µM): 1.05 ± 0.034
relative viability (0.00152 µM): 1.08 ± 0.019
relative viability (0.00457 µM): 1.07 ± 0.051
relative viability (0.01372 µM): 1.03 ± 0.067
relative viability (0.04115 µM): 0.967 ± 0.038
relative viability (0.1235 µM): 0.75 ± 0.026
relative viability (0.3704 µM): 0.479 ± 0.042
relative viability (1.111 µM): 0.341 ± 0.013
relative viability (3.333 µM): 0.308 ± 0.013
relative viability (10 µM): 0.21 ± 0.0051

Cc1ccc(NC(=O)c2ccc(CN3CCN(C)CC3)cc2)cc1Nc1nc(-c2cccnc2)cs1 [Masitinib]
relative viability (0.00017 µM): 1 ± 0.018
relative viability (0.00051 µM): 0.9842 ± 0.008
relative viability (0.00152 µM): 0.999 ± 0.032
relative viability (0.00457 µM): 1.06 ± 0.013
relative viability (0.01372 µM): 0.981 ± 0.033
relative viability (0.04115 µM): 1.01 ± 0.017
relative viability (0.1235 µM): 1 ± 0.042
relative viability (0.3704 µM): 0.93 ± 0.05
relative viability (1.111 µM): 0.817 ± 0.039
relative viability (3.333 µM): 0.5209 ± 0.0016
relative viability (10 µM): 0.138 ± 0.012

CC1(C)CNc2cc(NC(=O)c3cccnc3NCc3ccncc3)ccc21 [Motesanib]
relative viability (0.00017 µM): 0.942 ± 0.053
relative viability (0.00051 µM): 0.899 ± 0.059
relative viability (0.00152 µM): 0.952 ± 0.013
relative viability (0.00457 µM): 0.891 ± 0.017
relative viability (0.01372 µM): 0.9075 ± 0.0058
relative viability (0.04115 µM): 0.938 ± 0.056
relative viability (0.1235 µM): 0.974 ± 0.051
relative viability (0.3704 µM): 0.913 ± 0.043
relative viability (1.111 µM): 0.954 ± 0.044
relative viability (3.333 µM): 0.924 ± 0.053
relative viability (10 µM): 0.753 ± 0.038

CC(C)N1CCN(Cc2cnc(-c3cc(-c4cccc5[nH]ccc45)cc4[nH]ncc34)o2)CC1 [Nemiralisib]
relative viability (0.00017 µM): 0.934 ± 0.039
relative viability (0.00051 µM): 0.915 ± 0.03
relative viability (0.00152 µM): 0.945 ± 0.034
relative viability (0.00457 µM): 0.932 ± 0.035
relative viability (0.01372 µM): 0.985 ± 0.068
relative viability (0.04115 µM): 0.957 ± 0.041
relative viability (0.1235 µM): 0.977 ± 0.026
relative viability (0.3704 µM): 0.961 ± 0.055
relative viability (1.111 µM): 0.931 ± 0.04
relative viability (3.333 µM): 0.76 ± 0.027
relative viability (10 µM): 0.114 ± 0.053

C=CC(=O)Nc1cccc(Oc2nc(Nc3ccc(N4CCN(C)CC4)cc3)nc3ccsc23)c1 [Olmutinib]
relative viability (0.00017 µM): 0.979 ± 0.049
relative viability (0.00051 µM): 1.029 ± 0.0089
relative viability (0.00152 µM): 0.999 ± 0.047
relative viability (0.00457 µM): 1.03 ± 0.028
relative viability (0.01372 µM): 1.03 ± 0.036
relative viability (0.04115 µM): 1.018 ± 0.0064
relative viability (0.1235 µM): 1.05 ± 0.022
relative viability (0.3704 µM): 1.05 ± 0.051
relative viability (1.111 µM): 0.996 ± 0.059
relative viability (3.333 µM): 0.921 ± 0.011
relative viability (10 µM): 0.339 ± 0.041

CC(C)(C)c1cc(NC(=O)Nc2ccc(-c3cn4c(n3)sc3cc(OCCN5CCOCC5)ccc34)cc2)no1 [Quizartinib]
relative viability (0.00017 µM): 0.995 ± 0.028
relative viability (0.00051 µM): 1.05 ± 0.05
relative viability (0.00152 µM): 1.08 ± 0.014
relative viability (0.00457 µM): 1.1 ± 0.036
relative viability (0.01372 µM): 1.08 ± 0.037
relative viability (0.04115 µM): 1.04 ± 0.011
relative viability (0.1235 µM): 1.08 ± 0.035
relative viability (0.3704 µM): 1.1 ± 0.069
relative viability (1.111 µM): 0.904 ± 0.033
relative viability (3.333 µM): 0.674 ± 0.049
relative viability (10 µM): 0.594 ± 0.056

CNC(=O)c1cc(Oc2ccc(NC(=O)Nc3ccc(Cl)c(C(F)(F)F)c3)c(F)c2)ccn1 [Regorafenib]
relative viability (0.00017 µM): 1.11 ± 0.054
relative viability (0.00051 µM): 1.03 ± 0.027
relative viability (0.00152 µM): 1.08 ± 0.032
relative viability (0.00457 µM): 1.04 ± 0.017
relative viability (0.01372 µM): 1.02 ± 0.085
relative viability (0.04115 µM): 1.03 ± 0.014
relative viability (0.1235 µM): 1.09 ± 0.036
relative viability (0.3704 µM): 1.05 ± 0.047
relative viability (1.111 µM): 0.952 ± 0.05
relative viability (3.333 µM): 0.836 ± 0.017
relative viability (10 µM): 0.523 ± 0.021

CO[C@H]1C[C@@H]2CC[C@@H](C)[C@@](O)(O2)C(=O)C(=O)N2CCCC[C@H]2C(=O)O[C@H]([C@H](C)C[C@@H]2CC[C@@H](OP(C)(C)=O)[C@H](OC)C2)CC(=O)[C@H](C)/C=C(\C)[C@@H](O)[C@@H](OC)C(=O)[C@H](C)C[C@H](C)/C=C/C=C/C=C/1C [Ridaforolimus]
relative viability (0.00017 µM): 1.03 ± 0.059
relative viability (0.00051 µM): 1.04 ± 0.033
relative viability (0.00152 µM): 0.978 ± 0.051
relative viability (0.00457 µM): 0.806 ± 0.055
relative viability (0.01372 µM): 0.675 ± 0.037
relative viability (0.04115 µM): 0.643 ± 0.037
relative viability (0.1235 µM): 0.601 ± 0.014
relative viability (0.3704 µM): 0.555 ± 0.026
relative viability (1.111 µM): 0.56 ± 0.0043
relative viability (3.333 µM): 0.545 ± 0.029
relative viability (10 µM): 0.52 ± 0.011

COCc1c(-c2cc3cc(C)cc(OC)c3s2)c2c(N)ncnn2c1CN1CCNC(=O)C1 [Rogaratinib]
relative viability (0.00017 µM): 1.04 ± 0.043
relative viability (0.00051 µM): 1.03 ± 0.044
relative viability (0.00152 µM): 1.02 ± 0.035
relative viability (0.00457 µM): 1.03 ± 0.049
relative viability (0.01372 µM): 1.07 ± 0.045
relative viability (0.04115 µM): 1.05 ± 0.065
relative viability (0.1235 µM): 0.982 ± 0.062
relative viability (0.3704 µM): 0.97 ± 0.011
relative viability (1.111 µM): 0.848 ± 0.075
relative viability (3.333 µM): 0.659 ± 0.027
relative viability (10 µM): 0.463 ± 0.03
